Results published in BindingDB's records for doi:10.1021/jm030121k (Boehringer Ingelheim Pharmaceuticals, 2003).

Molecular target: Mitogen-activated protein kinase 14 (Mus musculus, UniProt P47811)
Assay: UV-Thermal Melt
Experimental: UV thermal melt experiments were carried out in a quartz cuvette loaded with sample containing enzyme and each test compound using a spectrophotometer. For each measurement, absorbance data at 230 nm was collected as the temperature was scanned from 25 to 80 C at a ramp rate of 0.2 C /min. The melting temperature (Tm) for each sample was calculated as the maximum deflection point of the first derivative of the melting transition.

Sequence of Mitogen-activated protein kinase 14 (P47811 whole entry): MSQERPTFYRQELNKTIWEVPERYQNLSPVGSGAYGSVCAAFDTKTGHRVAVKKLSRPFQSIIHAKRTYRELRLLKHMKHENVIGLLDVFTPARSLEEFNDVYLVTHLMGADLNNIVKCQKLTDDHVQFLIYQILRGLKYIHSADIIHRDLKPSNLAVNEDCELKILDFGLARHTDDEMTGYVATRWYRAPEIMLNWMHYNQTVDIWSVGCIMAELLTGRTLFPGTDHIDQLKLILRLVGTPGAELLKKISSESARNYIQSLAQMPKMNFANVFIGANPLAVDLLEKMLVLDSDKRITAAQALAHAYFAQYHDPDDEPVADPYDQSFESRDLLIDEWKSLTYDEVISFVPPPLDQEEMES

Work on Cc1ccc(-n2nc(C(C)(C)C)cc2NC(=O)Nc2cccc3ccccc23)cc1 [BIRB-796 Analog 4] yielded a Kd of 11 nM.
